Data as given in ChEMBL document CHEMBL1201862, “PubChem BioAssay data set” (2004).
Activity calls are given as the source filed them.

How the values were obtained:
[1] = biological target: T1, SUMO-activating enzyme (Homo sapiens, UniProt Q9UBT2); experiment: SUMOylation inhibitor hit validation, confirmation, SUMOylation inhibitor project, biochemical, AlphaScreen (AID 2018); type: functional
[2] = biological target: T1, SUMO-activating enzyme; experiment: inhibitors of in vitro SUMOylation cascade, primary screen, biochemical, HTRF, uHTS (AID 2006); type: protein-complex assay
[3] = Luminescence Cell-Based Dose Retest to Confirm Inhibitors of Cancer Stem Cells. [Related pubchem assays (depositor defined):AID2717, AID2721]; type: functional; settings: Homo sapiens
[4] = biological target: C-C chemokine receptor type 6 (Homo sapiens, UniProt P51684); experiment: CCR6 receptor antagonists, dose response, cell-based, luminescent beta-arrestin readout (AID 504728); type: functional
C-C chemokine receptor type 6, sequence (P51684 whole entry): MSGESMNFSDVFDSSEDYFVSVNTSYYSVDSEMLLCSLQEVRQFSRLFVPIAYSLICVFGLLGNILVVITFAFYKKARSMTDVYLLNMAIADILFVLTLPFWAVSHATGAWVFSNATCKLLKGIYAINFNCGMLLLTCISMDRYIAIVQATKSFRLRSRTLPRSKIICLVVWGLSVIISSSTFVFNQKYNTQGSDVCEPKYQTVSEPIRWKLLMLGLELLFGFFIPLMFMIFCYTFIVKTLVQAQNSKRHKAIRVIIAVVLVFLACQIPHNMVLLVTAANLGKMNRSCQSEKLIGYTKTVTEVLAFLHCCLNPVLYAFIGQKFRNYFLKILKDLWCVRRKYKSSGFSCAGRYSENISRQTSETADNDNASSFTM

[5] = biological target: Beta-galactosidase (Escherichia coli, UniProt Q8VNN2); experiment: beta-galactosidase enzyme inhibitors and activators, dose response, artefact control for CCR6 antagonist project, biochemical, E. coli enzyme, set 3 (AID 504712); type: functional
Beta-galactosidase, sequence (Q8VNN2 whole entry): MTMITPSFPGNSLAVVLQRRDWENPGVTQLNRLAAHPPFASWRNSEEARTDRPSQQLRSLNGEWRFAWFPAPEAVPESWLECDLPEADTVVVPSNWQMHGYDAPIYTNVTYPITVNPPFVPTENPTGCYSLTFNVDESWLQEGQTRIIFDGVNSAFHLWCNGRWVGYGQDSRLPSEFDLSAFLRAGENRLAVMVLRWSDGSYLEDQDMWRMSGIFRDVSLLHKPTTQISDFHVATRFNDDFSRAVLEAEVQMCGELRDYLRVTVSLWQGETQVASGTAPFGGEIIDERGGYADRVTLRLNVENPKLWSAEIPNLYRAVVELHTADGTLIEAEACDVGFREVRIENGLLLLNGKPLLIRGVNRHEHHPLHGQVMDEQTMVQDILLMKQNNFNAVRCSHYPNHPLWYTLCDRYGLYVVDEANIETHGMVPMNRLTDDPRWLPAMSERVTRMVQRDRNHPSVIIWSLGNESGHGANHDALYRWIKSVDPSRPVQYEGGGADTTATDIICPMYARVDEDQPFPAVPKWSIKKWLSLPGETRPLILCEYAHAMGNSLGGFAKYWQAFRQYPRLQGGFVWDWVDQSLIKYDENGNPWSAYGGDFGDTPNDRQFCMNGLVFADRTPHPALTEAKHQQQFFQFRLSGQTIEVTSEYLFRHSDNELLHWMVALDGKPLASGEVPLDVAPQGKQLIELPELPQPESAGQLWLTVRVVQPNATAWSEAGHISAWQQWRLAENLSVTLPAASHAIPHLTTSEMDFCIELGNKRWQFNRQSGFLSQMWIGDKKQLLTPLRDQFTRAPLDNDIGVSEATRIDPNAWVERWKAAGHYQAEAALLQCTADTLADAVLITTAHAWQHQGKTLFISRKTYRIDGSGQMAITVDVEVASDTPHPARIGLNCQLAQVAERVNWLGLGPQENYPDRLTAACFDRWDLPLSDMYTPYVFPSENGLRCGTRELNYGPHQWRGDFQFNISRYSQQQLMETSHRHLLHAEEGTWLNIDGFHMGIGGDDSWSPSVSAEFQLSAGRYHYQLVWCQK

[6] = biological target: Neurotensin receptor type 1 (Homo sapiens, UniProt P30989); type: functional;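 note: Image-based confirmatory dose-response assay measuring agonist activity at NTR1; NTR1-expressing U2OS osteosarcoma cells imaged for beta-arrestin GFP spot formation; agonist potency where compounds increase beta-arrestin recruitment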
Neurotensin receptor type 1, sequence (P30989 whole entry, the tested form may be a part): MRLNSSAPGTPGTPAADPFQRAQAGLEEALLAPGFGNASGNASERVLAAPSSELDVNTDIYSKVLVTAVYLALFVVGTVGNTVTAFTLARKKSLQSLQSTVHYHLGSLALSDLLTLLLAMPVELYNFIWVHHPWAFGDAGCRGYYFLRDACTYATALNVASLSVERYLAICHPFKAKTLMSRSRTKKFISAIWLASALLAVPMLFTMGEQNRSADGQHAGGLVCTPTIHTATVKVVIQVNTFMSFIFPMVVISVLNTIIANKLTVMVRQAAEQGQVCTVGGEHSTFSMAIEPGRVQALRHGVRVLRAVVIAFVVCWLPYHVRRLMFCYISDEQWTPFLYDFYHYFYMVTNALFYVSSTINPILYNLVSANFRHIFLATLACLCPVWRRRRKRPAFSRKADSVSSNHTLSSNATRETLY

[7] = biological target: T2, Type-1 angiotensin II receptor (Homo sapiens, UniProt P30556); experiment: AT1 receptor agonists, dose response, selectivity assay for APJ receptor agonist project, cell-based, uHTS hits (AID 488865); type: functional;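 note: beta-arrestin recruitment to AT1 measured by enzyme fragment complementation luminescence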
T2 sequence (P30556 whole entry): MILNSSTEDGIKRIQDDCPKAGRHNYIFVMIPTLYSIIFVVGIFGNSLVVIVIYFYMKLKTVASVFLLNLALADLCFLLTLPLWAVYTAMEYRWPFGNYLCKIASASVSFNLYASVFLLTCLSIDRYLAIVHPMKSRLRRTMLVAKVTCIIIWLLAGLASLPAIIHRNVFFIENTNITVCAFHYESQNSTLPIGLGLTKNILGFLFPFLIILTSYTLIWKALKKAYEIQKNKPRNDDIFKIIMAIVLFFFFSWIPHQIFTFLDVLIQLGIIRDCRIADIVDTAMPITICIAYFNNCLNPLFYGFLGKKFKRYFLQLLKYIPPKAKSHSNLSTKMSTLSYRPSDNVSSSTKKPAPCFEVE

[8] = Shn3 3'UTR reporter inhibitors, dose response, cell-based, Clone20 osteoblasts, firefly luciferase, cherry-picked (AID 624132); type: functional;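 note: firefly luciferase luminescence from reporter carrying the Shn3 3'UTR in osteoblasts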
[9] = control 3'UTR Renilla luciferase suppression, dose response, counter-screen for Shn3 inhibitor project, cell-based, Clone20-Shn3RL, cherry-picked (AID 624133); type: functional
[10] = Artemis endonuclease inhibitor potency, dose response, biochemical, fluorescence intensity (AID 720701); type: functional;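 note: Artemis endonuclease enzyme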
[11] = biological target: T3, Heat shock factor protein 1 (Mus musculus, UniProt P38532); experiment: inhibition of MG132-induced HSE-luciferase signal, confirmation, cell-based, NIH3T3, luminescence, dose retest (AID 2382); type: functional;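 note: NIH3T3 fibroblasts with HSF1-driven luciferase reporter stressed by proteasome inhibitor MG132; luminescence from HSF1-driven luciferase expression after 8 hours of MG132 stress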
T3 sequence (P38532 whole entry): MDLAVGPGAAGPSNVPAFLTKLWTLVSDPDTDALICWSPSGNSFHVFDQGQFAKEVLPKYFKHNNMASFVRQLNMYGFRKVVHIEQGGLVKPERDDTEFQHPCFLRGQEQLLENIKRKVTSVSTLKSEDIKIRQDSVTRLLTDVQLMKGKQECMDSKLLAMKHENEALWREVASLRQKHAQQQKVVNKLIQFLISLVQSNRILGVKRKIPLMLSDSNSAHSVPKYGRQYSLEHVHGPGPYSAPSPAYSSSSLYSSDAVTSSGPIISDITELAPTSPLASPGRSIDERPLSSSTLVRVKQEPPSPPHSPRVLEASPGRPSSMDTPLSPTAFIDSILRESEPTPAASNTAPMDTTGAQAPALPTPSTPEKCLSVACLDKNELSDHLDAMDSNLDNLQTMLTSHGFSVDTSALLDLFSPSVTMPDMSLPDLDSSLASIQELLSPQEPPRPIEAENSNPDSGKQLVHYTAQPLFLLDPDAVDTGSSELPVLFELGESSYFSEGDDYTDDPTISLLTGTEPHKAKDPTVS

[12] = tested on: Vibrio harveyi; experiment: Quorum Sensing, LuxS, LuxPQ Measured in Microorganism System Using Plate Reader - 2035-01_Inhibitor_DoseNoFile_DryPowder_Activity. [Related pubchem assays (depositor defined):AID2106]; type: functional, organism-based
[13] = tested on: Vibrio harveyi; experiment: inhibitors of AI-2 quorum sensing in V. harveyi, dose response, LuxS, LuxPQ, dry powder, set 2 (AID 493072); type: functional, organism-based
[14] = insulin promoter down-regulators in MIN6 cells, imaging, high-content screening, mouse beta cells (AID 1628); type: functional
[15] = biological target: Guanyl-specific ribonuclease T1 (Aspergillus oryzae (strain ATCC 42149 / RIB 40), UniProt P00651); experiment: RNase T1 inhibitors, dose response, counter-screen for TPT1 inhibitor project, biochemical, fluorescence polarization, 1536-well (AID 2167)
Guanyl-specific ribonuclease T1, sequence (P00651 whole entry): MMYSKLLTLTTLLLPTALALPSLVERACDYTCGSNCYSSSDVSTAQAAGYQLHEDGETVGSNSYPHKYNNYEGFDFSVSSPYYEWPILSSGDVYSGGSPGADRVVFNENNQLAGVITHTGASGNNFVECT

[16] = cytotoxicity in MIN6 insulinoma cells, dose response, cytotoxicity control, cell-based, mouse insulinoma (AID 2122); type: functional;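 note: confirmatory high-throughput counterscreen run to flag cytotoxic compounds; mouse MIN-6 beta cells carrying an insulin promoter eGFP reporter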
[17] = biological target: Likely tRNA 2'-phosphotransferase (Candida albicans (strain SC5314 / ATCC MYA-2876) (Yeast), UniProt Q5A7N4); experiment: TPT1 tRNA phosphotransferase inhibitors, dose response, biochemical, fluorescence polarization (AID 2160)
Likely tRNA 2'-phosphotransferase, sequence (Q5A7N4 whole entry): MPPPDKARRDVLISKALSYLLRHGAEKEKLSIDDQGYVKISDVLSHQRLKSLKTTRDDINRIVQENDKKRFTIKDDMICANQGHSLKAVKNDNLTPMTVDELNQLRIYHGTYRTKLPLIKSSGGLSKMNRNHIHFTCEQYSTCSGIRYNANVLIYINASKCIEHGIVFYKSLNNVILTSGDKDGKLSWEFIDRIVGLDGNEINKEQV

[18] = cytotoxicity in HEK-293T cells, dose response, cytotoxicity control for TCR NF-kB inhibitor project, luminescence, T-cell screen hits (AID 489026); type: functional, cell-based;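 note: cells exposed to compound about 14 hours before the viability readout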
[19] = biological target: Nonstructural protein 1 (Influenza A virus, UniProt Q194T2); type: functional, Influenza A virus (A/California/07/2009(H1N1))
Nonstructural protein 1, sequence (Q194T2 whole entry): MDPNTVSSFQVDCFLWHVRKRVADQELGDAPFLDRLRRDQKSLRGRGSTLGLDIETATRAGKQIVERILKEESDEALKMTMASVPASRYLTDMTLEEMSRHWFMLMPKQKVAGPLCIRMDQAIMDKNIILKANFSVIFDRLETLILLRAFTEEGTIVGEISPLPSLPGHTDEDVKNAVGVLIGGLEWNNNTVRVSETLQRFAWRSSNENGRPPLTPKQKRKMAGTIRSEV

[20] = biological target: T4, Microphthalmia-associated transcription factor (Homo sapiens, UniProt O75030); experiment: TRPM1 promoter luciferase signal decrease, dose response, MITF inhibitor project, cell-based, SK-MEL-5, cherry-picked, set 3 (AID 493073); type: functional
T4 sequence (O75030 whole entry): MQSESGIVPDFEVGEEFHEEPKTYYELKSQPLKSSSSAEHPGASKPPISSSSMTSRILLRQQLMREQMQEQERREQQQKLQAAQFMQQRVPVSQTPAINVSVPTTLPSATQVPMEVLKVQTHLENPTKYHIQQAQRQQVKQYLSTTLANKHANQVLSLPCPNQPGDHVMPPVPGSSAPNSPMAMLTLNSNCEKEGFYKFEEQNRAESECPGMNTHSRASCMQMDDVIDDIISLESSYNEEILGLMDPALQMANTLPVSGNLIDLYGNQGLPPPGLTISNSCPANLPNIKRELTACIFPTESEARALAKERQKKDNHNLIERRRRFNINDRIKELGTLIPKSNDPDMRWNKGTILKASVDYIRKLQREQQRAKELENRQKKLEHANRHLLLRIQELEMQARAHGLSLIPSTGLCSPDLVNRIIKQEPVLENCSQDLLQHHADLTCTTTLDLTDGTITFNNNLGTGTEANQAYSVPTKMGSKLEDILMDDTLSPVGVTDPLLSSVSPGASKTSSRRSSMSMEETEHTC

[21] = tested on: INS1; experiment: beta cell apoptosis inhibitors, cytokine rescue, dose response, luminescence, retest (AID 449756); type: functional, cell-based; settings: Rattus norvegicus;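 note: cell death triggered by IL-1 beta plus TNF-alpha plus IFN-gamma mixture; protective hits raise ATP signal compared with cytokine alone wells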
[22] = biological target: T5, G-protein coupled receptor 55 (Homo sapiens, UniProt Q9Y2T6); experiment: GPR55 agonists via beta-arrestin recruitment, primary screen, imaging, U2OS cells, beta-arrestin-GFP redistribution (AID 1961); type: functional
T5 sequence (Q9Y2T6 whole entry): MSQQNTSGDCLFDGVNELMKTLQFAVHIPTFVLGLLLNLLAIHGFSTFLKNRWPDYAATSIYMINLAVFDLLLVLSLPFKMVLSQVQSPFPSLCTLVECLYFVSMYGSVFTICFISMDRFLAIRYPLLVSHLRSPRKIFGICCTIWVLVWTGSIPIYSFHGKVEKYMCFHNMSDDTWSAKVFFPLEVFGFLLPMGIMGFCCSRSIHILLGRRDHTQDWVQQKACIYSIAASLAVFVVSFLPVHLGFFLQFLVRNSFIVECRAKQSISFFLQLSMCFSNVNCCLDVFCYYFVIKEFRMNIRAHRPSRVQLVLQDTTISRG

[23] = biological target: G-protein coupled receptor 35 (Homo sapiens, UniProt Q9HC97); experiment: GPR35 antagonists blocking zaprinast-driven arrestin recruitment, primary screen, imaging, U2OS, beta-arrestin-GFP, zaprinast agonist (AID 2058); type: functional;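 note: antagonist potency meaning inhibition of agonist-induced arrestin redistribution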
G-protein coupled receptor 35, sequence (Q9HC97 whole entry): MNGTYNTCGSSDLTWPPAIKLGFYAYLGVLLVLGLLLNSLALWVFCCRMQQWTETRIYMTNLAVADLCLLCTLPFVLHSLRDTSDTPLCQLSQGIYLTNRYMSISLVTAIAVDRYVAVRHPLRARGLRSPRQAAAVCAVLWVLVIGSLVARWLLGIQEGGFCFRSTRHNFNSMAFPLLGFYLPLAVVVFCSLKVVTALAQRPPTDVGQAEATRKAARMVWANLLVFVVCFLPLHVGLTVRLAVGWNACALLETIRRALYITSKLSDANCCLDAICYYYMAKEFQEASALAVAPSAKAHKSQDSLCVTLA

[24] = biological target: T5, G-protein coupled receptor 55; experiment: GPR55 antagonists blocking LPI-driven arrestin recruitment, primary screen, imaging, U2OS, beta-arrestin-GFP, LPI agonist (AID 2013); type: functional;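 note: antagonist potency measured as reduced agonist-driven arrestin aggregation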
[25] = biological target: Cytochrome P450 2C9 (Homo sapiens, UniProt P11712)
Cytochrome P450 2C9, sequence (P11712 whole entry): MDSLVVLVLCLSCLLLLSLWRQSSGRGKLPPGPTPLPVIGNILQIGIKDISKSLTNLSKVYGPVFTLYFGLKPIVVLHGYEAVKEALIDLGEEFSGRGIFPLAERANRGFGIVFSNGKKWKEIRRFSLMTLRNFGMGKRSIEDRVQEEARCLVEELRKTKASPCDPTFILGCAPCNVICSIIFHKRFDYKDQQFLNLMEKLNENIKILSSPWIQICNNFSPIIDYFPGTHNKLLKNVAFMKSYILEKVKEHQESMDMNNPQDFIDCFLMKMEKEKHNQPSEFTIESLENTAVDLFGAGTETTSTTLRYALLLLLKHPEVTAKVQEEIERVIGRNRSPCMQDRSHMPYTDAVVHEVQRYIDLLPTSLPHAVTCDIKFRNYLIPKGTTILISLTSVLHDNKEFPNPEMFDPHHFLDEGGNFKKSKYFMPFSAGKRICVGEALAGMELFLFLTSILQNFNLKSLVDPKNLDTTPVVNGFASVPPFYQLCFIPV

T1 sequence (Q9UBE0 whole entry): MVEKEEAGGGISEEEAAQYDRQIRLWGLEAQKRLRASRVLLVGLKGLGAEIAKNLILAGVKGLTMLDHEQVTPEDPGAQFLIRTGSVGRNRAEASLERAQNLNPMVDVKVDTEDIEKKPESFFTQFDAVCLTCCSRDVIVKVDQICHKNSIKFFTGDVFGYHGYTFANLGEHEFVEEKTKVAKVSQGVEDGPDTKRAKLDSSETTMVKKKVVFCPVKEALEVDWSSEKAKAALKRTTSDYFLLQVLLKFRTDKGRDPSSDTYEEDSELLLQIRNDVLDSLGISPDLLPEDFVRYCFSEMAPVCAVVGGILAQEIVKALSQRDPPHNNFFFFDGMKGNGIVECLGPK
T1 sequence (Q9UBT2 whole entry): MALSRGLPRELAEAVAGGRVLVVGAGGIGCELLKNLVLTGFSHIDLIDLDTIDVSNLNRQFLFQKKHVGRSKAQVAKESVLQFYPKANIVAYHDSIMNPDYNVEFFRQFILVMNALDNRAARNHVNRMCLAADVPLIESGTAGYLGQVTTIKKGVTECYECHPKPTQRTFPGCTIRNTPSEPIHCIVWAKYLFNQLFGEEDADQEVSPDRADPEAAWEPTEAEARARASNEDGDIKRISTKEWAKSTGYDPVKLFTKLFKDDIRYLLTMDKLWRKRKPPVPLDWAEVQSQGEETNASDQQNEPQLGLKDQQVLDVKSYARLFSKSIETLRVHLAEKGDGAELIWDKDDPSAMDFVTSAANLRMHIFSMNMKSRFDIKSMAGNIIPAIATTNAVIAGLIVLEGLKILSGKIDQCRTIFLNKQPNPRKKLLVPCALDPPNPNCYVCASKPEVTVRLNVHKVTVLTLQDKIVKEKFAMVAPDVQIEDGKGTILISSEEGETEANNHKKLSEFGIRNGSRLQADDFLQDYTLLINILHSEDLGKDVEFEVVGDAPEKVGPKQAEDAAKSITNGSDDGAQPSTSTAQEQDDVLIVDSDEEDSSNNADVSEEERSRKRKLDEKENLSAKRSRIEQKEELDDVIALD

Q: What does the source list for CC1=NOC(=O)/C1=C\c1ccc(-c2cc(Cl)ccc2Cl)o1?
A: IC50 [1]: 4.89 µM (active); IC50 [2]: 11.5 µM (active); AC50 [3]: 1.04 µM (active); IC50 [4]: > 66.6 µM (inactive); IC50 [5]: > 66.6 µM (inactive); EC50 [6]: 7.5 µM (active); EC50 [7]: > 100 µM (inactive); AC50 [8]: 5.69 µM (active); AC50 [9]: 9.55 µM (active); IC50 [10]: > 20 µM (inactive)

Q: Which EC50 [11] does the source give for COc1cc(NC(=O)CN2C(=O)NC(c3ccccc3)(c3ccccc3)C2=O)cc(OC)c1 here?
A: > 195 µM (not active)

Q: What about the AC50 [12] of the same compound?
A: 0.594 µM (active)

Q: What about the AC50 [13] of the same compound?
A: 0.77 µM (active)

Q: What about the AC50 ([13]; Vibrio harveyi) of the same compound?
A: 0.671 µM (active)

Q: For Cn1cc(C(=O)N/N=C/c2c(O)ccc3ccccc23)ccc1=O, which IC50 [14] is on record?
A: 4.33 µM (active)

Q: And the IC50 [15]?
A: > 55.7 µM (not active)

Q: What about the IC50 [16] of the same compound?
A: 4.04 µM (active)

Q: And the IC50 [17]?
A: > 55.7 µM (not active)

Q: What about the IC50 [18] of the same compound?
A: > 80 µM (inactive)

Q: What about the IC50 [19] of the same compound?
A: > 100 µM (active)

Q: And the AC50 [20]?
A: 2.55 µM (active)

Q: And the AC50 [21]?
A: 0.774 µM (active)

Q: Which EC50 [22] does the source give for CCN(CC)C(=O)CC(c1ccc2c(c1)OCO2)c1c(OC)cc(OC)c2c(-c3ccccc3)cc(=O)oc12 (stereo unspecified) here?
A: 2.72 µM (active)

Q: With CC(=O)Oc1ccc(C(c2ccc(OC(C)=O)cc2)c2ccccn2)cc1 [BISACODYL] as the compound, how does the IC50 [23] read?
A: > 32 µM (inactive)

Q: And the IC50 [24]?
A: 0.908 µM (active)

Q: What about the AC50 [25] of the same compound?
A: 15.8 µM (inconclusive)
